The values that follow come from US20240254103A9, “NOVEL PYRIMIDINE DERIVATIVE, AND COMPOSITION FOR PREVENTING OR TREATING NEURODEGENERATIVE DISEASES AND CANCER, COMPRISING SAME” (WHAN IN PHARMACEUTICAL CO., LTD., priority 2020, published 2024).

A short description of data set [1]: Blood-brain barrier (BBB) penetration, LC-MS/MS of plasma and brain tissue after oral administration. The class given is in vivo. Conditions: oral 10 mg/kg, three hours after administration. The procedure: Test substances were each orally administered at a dose of 10 mg/kg. Three hours later, the animals were sacrificed and blood samples were immediately taken from the heart and centrifuged to obtain plasma samples. In order to remove the blood remaining in the body, 20 ml of saline containing 10 U/ml heparin were perfused through the heart, after which the brain was excised. The brain was homogenized together with three volumes of a PBS buffer. For quantitative analysis in the prepared plasma and brain tissue, advantage was taken of LC-MS/MS (Agilent, Santa Clara, Calif., USA). Separation in LC was conducted with a mobile phase consisting of 80% of acetonitrile and 20% of water containing 0.1% formic acid. For each substance, the eluting buffer was run for a total of 3 minutes at a flow rate of 0.3 ml/min. Each substance was quantitated using a multiple reaction monitoring method (for comparative compounds 4 and 5, the oral Parkinson's disease drugs DNL-151 and DNL-201 were used as LRRK2 protein inhibitors, respectively).

Another data set addresses T1, wild-type LRRK2 (Homo sapiens, UniProt Q5S007).
T1 construct: DNA tag for qPCR detection (not a peptide; the protein part that carries it is not described); made in house; host or cells: HEK 293 cells (the same paragraph also describes T7 phage grown in E. coli BL21)
Put plainly: Inhibitory activity against LRRK2: competition binding to ligand-affinity beads, DNA-tagged kinase quantitated by qPCR. The following applies: % of ctrl; for remaining binding at 0.1 µM: 100 nM compound, read-out: Remaining kinase activity(%) at 100 nM LRRK2(WT). An outline of the steps:
(§1)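 Human LRRK2 H970–E2527, wild type or G2019S, was expressed as DNA-tagged kinase (T7 phage in E. coli or HEK293) and competed for 1 h against a biotinylated ligand on streptavidin beads. Bound kinase was eluted with 0.5 µM free ligand and quantified by qPCR. Values are % of control at 100 nM (both forms) and at 10 and 50 nM (wild type).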
(In general: In qPCR the cycle at which signal appears reflects the starting amount.)

The target of a further data set is T2, mutant LRRK2 (G2019S) (Homo sapiens, UniProt Q5S007, G2019S).
T2 construct: DNA tag for qPCR detection (not a peptide; the protein part that carries it is not described); made in house; host or cells: HEK 293 cells (the same paragraph also describes T7 phage grown in E. coli BL21)
T2 sequence (Q5S007 970-2527 G2019S): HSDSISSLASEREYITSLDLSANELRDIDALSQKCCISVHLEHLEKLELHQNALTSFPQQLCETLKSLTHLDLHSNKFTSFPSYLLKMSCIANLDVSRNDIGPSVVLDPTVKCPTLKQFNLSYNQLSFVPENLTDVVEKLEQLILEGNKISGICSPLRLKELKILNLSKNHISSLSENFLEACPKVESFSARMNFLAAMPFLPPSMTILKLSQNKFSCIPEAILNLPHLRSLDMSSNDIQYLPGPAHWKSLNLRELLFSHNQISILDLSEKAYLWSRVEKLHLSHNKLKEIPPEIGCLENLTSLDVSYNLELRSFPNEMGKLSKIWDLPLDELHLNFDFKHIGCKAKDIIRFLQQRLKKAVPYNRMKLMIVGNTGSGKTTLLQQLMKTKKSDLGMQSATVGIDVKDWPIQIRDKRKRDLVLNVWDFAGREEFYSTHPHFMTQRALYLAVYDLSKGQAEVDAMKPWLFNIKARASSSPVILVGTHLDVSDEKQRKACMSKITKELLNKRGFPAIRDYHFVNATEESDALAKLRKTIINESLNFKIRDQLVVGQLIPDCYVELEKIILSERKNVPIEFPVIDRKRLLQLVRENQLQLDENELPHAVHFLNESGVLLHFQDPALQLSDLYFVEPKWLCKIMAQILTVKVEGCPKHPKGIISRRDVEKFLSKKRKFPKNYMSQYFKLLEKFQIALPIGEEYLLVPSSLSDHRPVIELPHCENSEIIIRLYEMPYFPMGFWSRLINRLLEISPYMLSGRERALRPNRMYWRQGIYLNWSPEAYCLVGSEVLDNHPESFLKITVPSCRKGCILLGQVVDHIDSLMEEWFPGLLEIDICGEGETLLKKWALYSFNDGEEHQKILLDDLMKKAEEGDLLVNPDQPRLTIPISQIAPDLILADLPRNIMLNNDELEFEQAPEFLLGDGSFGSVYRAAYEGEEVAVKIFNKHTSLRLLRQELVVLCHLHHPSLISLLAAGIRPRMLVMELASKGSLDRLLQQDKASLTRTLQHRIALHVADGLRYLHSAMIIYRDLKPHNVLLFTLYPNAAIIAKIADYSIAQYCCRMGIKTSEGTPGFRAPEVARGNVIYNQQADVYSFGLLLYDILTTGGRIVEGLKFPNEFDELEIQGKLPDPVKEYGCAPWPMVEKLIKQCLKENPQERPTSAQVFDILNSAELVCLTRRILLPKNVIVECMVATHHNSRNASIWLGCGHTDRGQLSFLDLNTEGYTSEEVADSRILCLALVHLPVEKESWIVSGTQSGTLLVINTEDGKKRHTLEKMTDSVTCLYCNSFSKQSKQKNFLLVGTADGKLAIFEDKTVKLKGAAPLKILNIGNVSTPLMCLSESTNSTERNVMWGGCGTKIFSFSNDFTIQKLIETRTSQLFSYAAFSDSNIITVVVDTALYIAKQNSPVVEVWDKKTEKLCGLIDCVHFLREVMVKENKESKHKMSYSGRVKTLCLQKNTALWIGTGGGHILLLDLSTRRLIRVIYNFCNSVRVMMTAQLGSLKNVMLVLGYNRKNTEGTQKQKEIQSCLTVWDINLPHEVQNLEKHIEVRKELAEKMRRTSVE
Described as above. Conditions: 100 nM compound; % of ctrl; read-out: Remaining kinase activity(%) at 100 nM LRRK2(G2019Smutant). The method in brief: as §1

T1 sequence (Q5S007 970-2527): as the sequence (Q5S007 970-2527 G2019S) above, with S1050G counted along it

As for `COc1cc(C(=O)N2CCOCC2)ccc1Nc1ncc(Cl)c(-c2cnn(C(C)C)c2)n1` [Compound 37, (4-((5-chloro-4-(1-isopropyl-1H-pyrazol-4-yl)pyrimidin-2-yl)amino)-3-methoxyphenyl)(morpholino)methanone], in data set [1], the “effective concentration in the brain tissue, fold higher compared to comparative compound-4 (DNL-151)” value is on record as 1.64 fold and the “effective concentration in the brain tissue, fold higher compared to comparative compound-5 (DNL-201)” value is recorded as 2.77 fold. For the same molecule, the remaining binding at 0.01 µM at wild-type LRRK2 (10 nM compound, read-out: LRRK2(WT) Remaining kinase activity(%) at 10 nM) was below 50%. Moreover, at wild-type LRRK2 (50 nM compound, read-out: LRRK2(WT) Remaining kinase activity(%) at 50 nM), the remaining binding at 0.05 µM was below 30%. Further, the remaining binding at 0.1 µM at wild-type LRRK2 is below 10%. In addition, the remaining binding at 0.1 µM at mutant LRRK2 (G2019S) was below 10%.

Turning to `COc1cc(C(=O)N2CCOCC2)ccc1Nc1ncc(Cl)c(-c2cnn(C(C)(C)CC#N)c2)n1` [Compound 27, 3-(4-(5-chloro-2-((2-methoxy-4-(morpholine-4-carbonyl)phenyl)amino)pyrimidin-4-yl)-1H-pyrazol-1-yl)-3-methylbutanenitrile], the remaining binding at 0.1 µM on wild-type LRRK2 and on mutant LRRK2 (G2019S) was below 10% in each case.

As for `COc1cc(C(=O)N2CCOCC2)ccc1Nc1ncc(Cl)c(-c2cnn(CCO)c2)n1` [Compound 4, (4-((5-chloro-4-(1-(2-hydroxyethyl)-1H-pyrazol-4-yl)pyrimidin-2-yl)amino)-3-methoxyphenyl)(morpholino)methanone], the remaining binding at 0.1 µM at wild-type LRRK2 and on mutant LRRK2 (G2019S) was below 30% throughout.

For the molecule `COc1cc(C(=O)N2C[C@H]3CC[C@@H](C2)O3)ccc1Nc1ncc(Cl)c(-c2cnn(C)c2)n1` [Compound 51, ((1R,5S)-8-oxa-3-azabicyclo[3.2.1]octan-3-yl)(4-((5-chloro-4-(1-methyl-1H-pyrazol-4-yl)pyrimidin-2-yl)amino)-3-methoxyphenyl)methanone], the remaining binding at 0.1 µM at wild-type LRRK2 and at mutant LRRK2 (G2019S) was below 30% in each case.

Take `COc1cc(C(=O)N2CCC3(CC2)COC3)ccc1Nc1ncc(Cl)c(-c2cnn(C3CCOCC3)c2)n1` [Compound 35, (4-((5-chloro-4-(1-(tetrahydro-2H-pyran-4-yl)-1H-pyrazol-4-yl)pyrimidin-2-yl)amino)-3-methoxyphenyl)(2-oxa-7-azaspiro[3.5]nonan-7-yl)methanone]: the remaining binding at 0.1 µM at wild-type LRRK2 was below 30%; at mutant LRRK2 (G2019S), below 10%.

For the molecule `COCCN(C)C(=O)c1ccc(Nc2ncc(Cl)c(-c3cnn(C)c3)n2)c(OC)c1` [Compound 21, 4-((5-chloro-4-(1-methyl-1H-pyrazol-4-yl)pyrimidin-2-yl)amino)-3-methoxy-N-(2-methoxyethyl)-N-methylbenzamide], the remaining binding at 0.1 µM at wild-type LRRK2 and on mutant LRRK2 (G2019S) was below 30% each time.

Regarding `COc1cc(C(=O)N2CCOCC2)ccc1Nc1ncc(Cl)c(-c2cnn(C(C)CC#N)c2)n1` (stereo not shown) [Compound 7, 3-(4-(5-chloro-2-((2-methoxy-4-(morpholine-4-carbonyl)phenyl)amino)pyrimidin-4-yl)-1H-pyrazol-1-yl)butanenitrile], the remaining binding at 0.1 µM at wild-type LRRK2 and at mutant LRRK2 (G2019S) was below 10% each time.

As to `COc1cc(C(=O)N2CCN(C(C)C)CC2)ccc1Nc1ncc(Cl)c(-c2cnn(C)c2)n1` [Compound 34, (4-((5-chloro-4-(1-methyl-1H-pyrazol-4-yl)pyrimidin-2-yl)amino)-3-methoxyphenyl)(4-isopropylpiperazin-1-yl)methanone], the remaining binding at 0.1 µM is below 10% on wild-type LRRK2 and below 30% at mutant LRRK2 (G2019S).

With `COc1cc(C(=O)N2CCOCC2)ccc1Nc1ncc(Cl)c(-c2cccc([N+](=O)[O-])c2)n1` [Comparative Compound 3, (4-((5-chloro-4-(3-nitrophenyl)pyrimidin-2-yl)amino) -3-methoxyphenyl)(morpholino)methanone, reference compound], the remaining binding at 0.1 µM at wild-type LRRK2 and on mutant LRRK2 (G2019S) was at least 50% throughout.

As to `COCn1cc(-c2nc(Nc3ccc(C(=O)N4CCOCC4)cc3OC)ncc2Cl)cn1` [Compound 16, (4-((5-chloro-4-(1-(methoxymethyl)-1H-pyrazol-4-yl)pyrimidin-2-yl)amino)-3-methoxyphenyl)(morpholino)methanone], the remaining binding at 0.1 µM at wild-type LRRK2 is below 30%; at mutant LRRK2 (G2019S), below 10%.

Consider `COc1cc(C(=O)N2CCOCC2)ccc1Nc1ncc(Cl)c(-c2cnn(C3CCOCC3)c2)n1` [Compound 20, (4-((5-chloro-4-(1-(tetrahydro-2H-pyran-4-yl)-1H-pyrazol-4-yl)pyrimidin-2-yl)amino)-3-methoxyphenyl)(morpholino)methanone], for which the remaining binding at 0.1 µM on wild-type LRRK2 and at mutant LRRK2 (G2019S) was below 10% throughout.

`COc1cc(C(=O)N2CCN(C(C)C)CC2)ccc1Nc1ncc(C(F)(F)F)c(-c2cnn(C)c2)n1` [Compound 45, (4-isopropylpiperazin-1-yl)(3-methoxy-4-((4-(1-methyl-1H-pyrazol-4-yl)-5-(trifluoromethyl)pyrimidin-2-yl)amino)phenyl)methanone]: the remaining binding at 0.1 µM on wild-type LRRK2 and on mutant LRRK2 (G2019S) was below 30% in each case.

Consider `COc1cc(C(=O)N2CCC3(CC2)COC3)ccc1Nc1ncc(Cl)c(-c2cnn(C)c2)n1` [Compound 32, (4-((5-chloro-4-(1-methyl-1H-pyrazol-4-yl)pyrimidin-2-yl)amino)-3-methoxyphenyl)(2-oxa-7-azaspiro[3.5]nonan-7-yl)methanone], for which the remaining binding at 0.1 µM on wild-type LRRK2 was below 50%; on mutant LRRK2 (G2019S), below 30%.

Consider `COc1cc(C(=O)N2CCOCC2)ccc1Nc1ncc(Cl)c(-c2cnn(C)c2)n1` [Compound 1, (4-((5-chloro-4-(1-methyl-1H-pyrazol-4-yl)pyrimidin-2-yl)amino)-3-methoxyphenyl)(morpholino)methanone], for which the remaining binding at 0.1 µM on wild-type LRRK2 and on mutant LRRK2 (G2019S) was below 30% each time.

As for `COc1cc(C(=O)N2CCOCC2)ccc1Nc1ncc(Cl)c(-c2cnn(C(F)F)c2)n1` [Compound 15, (4-((5-chloro-4-(1-(difluoromethyl)-1H-pyrazol-4-yl)pyrimidin-2-yl)amino)-3-methoxyphenyl)(morpholino)methanone], the remaining binding at 0.1 µM on wild-type LRRK2 is below 50%; on mutant LRRK2 (G2019S), below 30%.

With `COc1cc(C(=O)N2CC(N3CCOCC3)C2)ccc1Nc1ncc(Cl)c(-c2cnn(C)c2)n1` [Compound 43, (4-((5-chloro-4-(1-methyl-1H-pyrazol-4-yl)pyrimidin-2-yl)amino)-3-methoxyphenyl)(3-morpholinoazetidin-1-yl)methanone], the remaining binding at 0.1 µM at wild-type LRRK2 is below 10%; at mutant LRRK2 (G2019S) it was below 30%.

Consider `COc1cc(C(=O)N2CCC(N3CCN(C)CC3)CC2)ccc1Nc1ncc(Cl)c(-c2cnn(C)c2)n1` [Compound 19, (4-((5-chloro-4-(1-methyl-1H-pyrazol-4-yl)pyrimidin-2-yl)amino)-3-methoxyphenyl)(4-(4-methylpiperazin-1-yl)piperidin-1-yl)methanone], for which the remaining binding at 0.1 µM on wild-type LRRK2 and on mutant LRRK2 (G2019S) was below 10% in each case.

For `COc1ccc(Cn2cc(-c3nc(Nc4ccc(C(=O)N5CCOCC5)cc4OC)ncc3Cl)cn2)cc1` [Compound 17, (4-((5-chloro-4-(1-(4-methoxybenzyl)-1H-pyrazol-4-yl)pyrimidin-2-yl)amino)-3-methoxyphenyl)(morpholino)methanone], the figures for the remaining binding at 0.1 µM on wild-type LRRK2 and at mutant LRRK2 (G2019S) were below 30% and below 50%, respectively.

Take `COc1cc(C(=O)N2CCOCC2)ccc1Nc1ncc(Cl)c(-c2cnn(S(C)(=O)=O)c2)n1` [Compound 10, (4-((5-chloro-4-(1-(methylsulfonyl)-1H-pyrazol-4-yl)pyrimidin-2-yl)amino)-3-methoxyphenyl)(morpholino)methanone]: the remaining binding at 0.1 µM is below 30% on wild-type LRRK2 and below 10% on mutant LRRK2 (G2019S).

`COc1cc(C(=O)NC(C)(C)C)ccc1Nc1ncc(Cl)c(-c2cnn(C)c2)n1` [Compound 25, N-(tert-butyl)-4-((5-chloro-4-(1-methyl-1H-pyrazol-4-yl)pyrimidin-2-yl)amino)-3-methoxybenzamide]: the remaining binding at 0.1 µM at wild-type LRRK2 is below 30%; at mutant LRRK2 (G2019S) it was below 50%.

In the case of `COc1cc(C(=O)N2CCN(C3COC3)CC2)ccc1Nc1ncc(Cl)c(-c2cnn(C)c2)n1` [Compound 50, (4-((5-chloro-4-(1-methyl-1H-pyrazol-4-yl)pyrimidin-2-yl)amino)-3-methoxyphenyl)(4-(oxetan-3-yl)piperazin-1-yl)methanone], the remaining binding at 0.1 µM at wild-type LRRK2 and on mutant LRRK2 (G2019S) was below 10% throughout.
